Data on 14 compounds can be found in US20230248665A1, “COMPOSITION COMPRISING DIMETHYLCHALCONE DERIVATIVE FOR PREVENTION OR TREATMENT OF METABOLIC DISEASE” (SEOUL NATIONAL UNIVERSITY R & DB FOUNDATION, priority 2020, published 2023).

Molecules are shown by their SMILES.

What all share (format): cell-based
For test [1], the system named is rat aortic smooth muscle cells. Description: PDGF-induced migration of vascular smooth muscle cells. The following applies: 1 µM with 10 ng/mL PDGF; FIG. 4. As for the experimental part:
Proliferation and migration of vascular smooth muscle cells are known to be essential steps in the progression of vascular diseases such as restenosis and arteriosclerosis. Therefore, in order to confirm the effect of the DMC derivatives of Example 1 on the migration of rat aortic smooth muscle cells, smooth muscle cells were treated with 10 ng/mL platelet-derived growth factor (PDGF) and 1 µM DMC derivative and cultured. Then, the degree of cell migration was measured.

Test [2] has as its system vascular endothelial cells (HUVECs) and THP-1 (human monocyte) immune cells. Description: Binding of THP-1 immune cells to TNFα-treated vascular endothelial cells (HUVECs). The following applies: 10 µM with 10 ng/mL TNFα, 24 hours, then THP-1 for 1 hour; FIG. 5. As for the experimental part: In the early stages of progression of vascular diseases such as arteriosclerosis, adhesion materials are expressed in vascular endothelial cells due to various environmental factors, thereby increasing the binding of immune cells. Therefore, in order to check whether the DMC derivatives of Example 1 affect the binding between vascular endothelial cells and immune cells, vascular endothelial cells (HUVECs) were treated with 10 ng/mL TNFα and 10 µM DMC derivative and cultured for 24 hours. Then, THP-1 (human monocyte) immune cells labeled with a fluorescent protein were added to the culture solution, and the cells were additionally cultured for 1 hour. After the culture was completed, unbound immune cells were removed using a phosphate buffer solution, and then the degree of binding of immune cells to vascular endothelial cells was determined by measuring the intensity of fluorescence.

In test [3] the test system is human kidney proximal tubule epithelial cell (HK-2) cell line. The test can be described thus: Antioxidant effect, intracellular reactive oxygen species (DCF-DA) in HK-2 kidney cells after H2O2. The following applies: 1 µM for 18 hours, then 500 µM H2O2 for 6 hours, FIG. 6. On the procedure: First, the antioxidant effect was checked using kidney cells. More specifically, a human kidney proximal tubule epithelial cell (HK-2) cell line was treated with 1 µM DMC derivative and cultured for 18 hours. Then, 500 µM H2O2 was added to the culture medium and the culture medium was incubated for 6 hours. Thereafter, the amount of intracellular reactive oxygen species (iROS) was measured using dichlorohydro-fluorescein diacetate (DCF-DA).

In a further test the test system is AMPK. The test can be described thus: AMPK activity, western blotting of phosphorylated AMPK in C2C12 myotubes. The following applies: 10 µM, 24 hours, FIG. 2. An excerpt:
AMP-activated protein kinase (AMPK) is a member of serine/threonine kinases, and is an enzyme known as an energy sensor which senses the intracellular energy state. Moreover, the activation of AMPK is known to show the effect of increasing glucose transport and promoting fatty acid oxidation in skeletal muscle, and to […] the synthesis of cholesterol and triglycerides, decrease lipogenesis, and increase fatty acid oxidation, and ketogenesis, and the like in the liver. Further, the activation of AMPK is known to reduce adipogenesis in adipose tissue and increase insulin secretion in pancreatic beta cells, thereby being able to be applied to the treatment of various metabolic diseases. Therefore, western blotting was performed in order to confirm the effect of the DMC derivatives of Example 1 on AMPK activity. More specifically, the C2C12 myoblasts were primarily cultured in DMEM supplemented with 10% fetal bovine serum, and then cultured in DMEM supplemented with 2% horse serum for 5 days to differentiate into myotubes. Then, the differentiated myotubes were treated with 10 µM DMC derivative and cultured for 24 hours, and then cells were collected, and disrupted using an ultrasonic disperser to obtain proteins. Next, western blotting was performed using a pAMPK antibody (Cell Signaling Technology) and an AMPK antibody (Cell Signaling Technology) to measure the amount of phosphorylated AMPK. 1 mM AICAR was used as a positive control, and 20 µg of protein was used for each sample in western blotting.
On the technique in general: Immunoblotting shows a protein as a band on a membrane.

Consider `COc1c(C)c(O)c(C)c(O)c1C(=O)/C=C/c1ccc(F)cc1` [Chemical Formula 2, 1-(2′,4′-dihydroxy-6′-methoxy-3′,5′-dimethylphenyl)-3-(4-fluorophenyl)-2-propen-l-one], for which the “migration of vascular smooth muscle cells” value (from here on “migration”) in test [1] is “similarly or more effectively suppressed cell migration by PDGF than AICAR and Rosi, which were used as positive controls, and DMC”. Moreover, the “binding of immune cells to vascular endothelial cells (fluorescence)” value (“binding of immune cells” below) in test [2] is “similarly or more effectively suppressed the binding of immune cells than Rosi”. The “amount of intracellular reactive oxygen species (ROS)” value (shortened to “amount”) in test [3] is “effectively reduced ROS”.
As to `COc1c(C)c(O)c(C)c(O)c1C(=O)/C=C/c1ccc(F)c(F)c1` [Chemical Formula 6, 1-(2′,4′-dihydroxy-6′-methoxy-3′,5′-dimethylphenyl)-3-(3,4-difluorophenyl)-2-propen-1-one], the “binding of immune cells” value in test [2] is reported as “similarly or more effectively suppressed the binding of immune cells than Rosi”. Further, in test [3], the “amount” value is on record as “effectively reduced ROS”. Moreover, in the test with AMPK, the “activity of AMPK (phosphorylated AMPK)” value is given as “increased the activity of AMPK similarly to or more effectively than the positive controls”.
For `COc1c(C)c(O)c(C)c(O)c1C(=O)/C=C/c1ccc(N(C)C)cc1` [Chemical Formula 7, 1-(2,4′-dihydroxy-6′-methoxy-3′,5′-dimethylphenyl)-3-(4-(N,N-dimethylamino)phenyl)-2-propen-1-one], the “binding of immune cells” value in test [2] was “similarly or more effectively suppressed the binding of immune cells than Rosi”. The “amount” value in test [3] was “effectively reduced ROS”.
`COc1c(C)c(O)c(C)c(O)c1C(=O)/C=C/c1ccc(Cl)cc1` [Chemical Formula 8, 1-(2′,4′-dihydroxy-6′-methoxy-3′,5′-dimethylphenyl)-3-(4-chlorophenyl)-2-propen-1-one]: the “binding of immune cells” value in test [2] is given as “similarly or more effectively suppressed the binding of immune cells than Rosi”. Further, the “amount” value in test [3] is on record as “effectively reduced ROS”. For the same compound, in the test on AMPK, the “activity of AMPK (phosphorylated AMPK)” value is listed as “increased the activity of AMPK similarly to or more effectively than the positive controls”.
Taken in the same sequence, the figures for `COc1c(C)c(O)c(C)c(O)c1C(=O)/C=C/c1ccc(C(F)(F)F)cc1` [Chemical Formula 9, 1-(2′,4′-dihydroxy-6′-methoxy-3′,5′-dimethylphenyl)-3-(4-(trifluoromethyl)phenyl)-2-propen-1-one] were “similarly or more effectively suppressed the binding of immune cells than Rosi”, “effectively reduced ROS” and “increased the activity of AMPK similarly to or more effectively than the positive controls”.
On to `COc1ccc(OC)c(/C=C/C(=O)c2c(O)c(C)c(O)c(C)c2OC)c1` [Chemical Formula 10, 1-(2′,4′-dihydroxy-6′-methoxy-3′,5′-dimethylphenyl)-3-(2,5-dimethoxyphenyl)-2-propen-1-one], for which, in test [2], the “binding of immune cells” value is given as “similarly or more effectively suppressed the binding of immune cells than Rosi”. Further, in test [3], the “amount” value is given as “effectively reduced ROS”.
As to `COCOc1c(C)c(O)c(C(=O)/C=C/c2ccc(F)c(F)c2)c(OC)c1C` [Chemical Formula 11, 1-(2′-hydroxy-4′-(methoxymethoxy)-6′-methoxy-3′,5′-dimethylphenyl)-3-(3,4-difluorophenyl)-2-propen-1-one], the “binding of immune cells” value in test [2] is listed as “similarly or more effectively suppressed the binding of immune cells than Rosi”. The “amount” value in test [3] is on record as “effectively reduced ROS”. In the test with AMPK, the “activity of AMPK (phosphorylated AMPK)” value is recorded as “increased the activity of AMPK similarly to or more effectively than the positive controls”.
Regarding `COCOc1c(C)c(O)c(C(=O)/C=C/c2ccc(Cl)cc2)c(OC)c1C` [Chemical Formula 12, 1-(2′-hydroxy-4′-(methoxymethoxy)-6′-methoxy-3′,5′-dimethyphenyl)-3-(4-chlorophenyl)-2-propen-1-one], in test [2], the “binding of immune cells” value is given as “similarly or more effectively suppressed the binding of immune cells than Rosi”. For the same compound, the “amount” value in test [3] is “effectively reduced ROS”. The “activity of AMPK (phosphorylated AMPK)” value in the test with AMPK is “increased the activity of AMPK similarly to or more effectively than the positive controls”.
As to `COCOc1c(C)c(O)c(C(=O)/C=C/c2ccc(SC)cc2)c(OC)c1C` [Chemical Formula 13, 1-(2′-hydroxy-4′-(methoxymethoxy)-6′-methoxy-3′,5′-dimethyphenyl)-3-(4-methylthiophenyl)-2-propen-1-one], the “migration” value in test [1] was “similarly or more effectively suppressed cell migration by PDGF than AICAR and Rosi, which were used as positive controls, and DMC”. Further, the “binding of immune cells” value in test [2] was “similarly or more effectively suppressed the binding of immune cells than Rosi”. Moreover, the “amount” value in test [3] is listed as “effectively reduced ROS”.
In the case of `COCOc1c(C)c(O)c(C(=O)/C=C/c2ccc(C(F)(F)F)cc2)c(OC)c1C` [Chemical Formula 14, 1-(2′-hydroxy-4′-(methoxymethoxy)-6′-methoxy-3′,5′-dimethylphenyl)-3-(4-(trifluoromethyl)phenyl)-2-propen-1-one], in test [2], the “binding of immune cells” value is “similarly or more effectively suppressed the binding of immune cells than Rosi”. The “amount” value in test [3] is “effectively reduced ROS”.
With `COc1c(C)c(O)c(C)c(O)c1C(=O)/C=C/c1ccccc1F` [Chemical Formula 31, 1-(2′,4′-dihydroxy-6′-methoxy-3′,5′-dimethylphenyl)-3-(2-fluorophenyl)-2-propen-1-one], in test [1], the “migration” value was “similarly or more effectively suppressed cell migration by PDGF than AICAR and Rosi, which were used as positive controls, and DMC”. For the same compound, in test [3], the “amount” value was “effectively reduced ROS”. Besides, the “activity of AMPK (phosphorylated AMPK)” value in the test with AMPK is given as “increased the activity of AMPK similarly to or more effectively than the positive controls”.
Consider `COCOc1c(C)c(O)c(C(=O)/C=C/c2cccc(F)c2)c(OC)c1C` [Chemical Formula 35, 1-(2′-hydroxy-4′-(methoxymethoxy)-6′-methoxy-3′,5′-dimethylphenyl)-3-(3-fluorophenyl)-2-propen-1-one], for which the “binding of immune cells” value in test [2] was “similarly or more effectively suppressed the binding of immune cells than Rosi”. The “amount” value in test [3] was “effectively reduced ROS”.
Regarding `COCOc1c(C)c(O)c(C(=O)/C=C/c2ccccc2Cl)c(OC)c1C` [Chemical Formula 38, 1-(2′-hydroxy-4′-(methoxymethoxy)-6′-methoxy-3′,5′-dimethylphenyl)-3-(2-chlorophenyl)-2-propen-1-one], the “migration” value in test [1] is “similarly or more effectively suppressed cell migration by PDGF than AICAR and Rosi, which were used as positive controls, and DMC”. The “binding of immune cells” value in test [2] is reported as “similarly or more effectively suppressed the binding of immune cells than Rosi”.
Regarding `COc1c(C)c(O)c(C)c(O)c1C(=O)/C=C/c1ccc(C)cc1C` [Chemical Formula 39, 1-(2′,4′-dihydroxy-6′-methoxy-3′,5′-dimethylphenyl)-3-(2,4-dimethylphenyl)-2-propen-1-one], the “migration” value in test [1] was “similarly or more effectively suppressed cell migration by PDGF than AICAR and Rosi, which were used as positive controls, and DMC”. Also, the “binding of immune cells” value in test [2] is given as “similarly or more effectively suppressed the binding of immune cells than Rosi”. Moreover, the “activity of AMPK (phosphorylated AMPK)” value with AMPK is recorded as “increased the activity of AMPK similarly to or more effectively than the positive controls”.
